{
  "source": "ChEMBL document CHEMBL1201862",
  "about": "“PubChem BioAssay data set” (2004)",
  "key": {"[1]": {"biological_target": "Histone-lysine N-methyltransferase NSD2 (Homo sapiens, UniProt O96028)", "sequence (O96028 whole entry)": "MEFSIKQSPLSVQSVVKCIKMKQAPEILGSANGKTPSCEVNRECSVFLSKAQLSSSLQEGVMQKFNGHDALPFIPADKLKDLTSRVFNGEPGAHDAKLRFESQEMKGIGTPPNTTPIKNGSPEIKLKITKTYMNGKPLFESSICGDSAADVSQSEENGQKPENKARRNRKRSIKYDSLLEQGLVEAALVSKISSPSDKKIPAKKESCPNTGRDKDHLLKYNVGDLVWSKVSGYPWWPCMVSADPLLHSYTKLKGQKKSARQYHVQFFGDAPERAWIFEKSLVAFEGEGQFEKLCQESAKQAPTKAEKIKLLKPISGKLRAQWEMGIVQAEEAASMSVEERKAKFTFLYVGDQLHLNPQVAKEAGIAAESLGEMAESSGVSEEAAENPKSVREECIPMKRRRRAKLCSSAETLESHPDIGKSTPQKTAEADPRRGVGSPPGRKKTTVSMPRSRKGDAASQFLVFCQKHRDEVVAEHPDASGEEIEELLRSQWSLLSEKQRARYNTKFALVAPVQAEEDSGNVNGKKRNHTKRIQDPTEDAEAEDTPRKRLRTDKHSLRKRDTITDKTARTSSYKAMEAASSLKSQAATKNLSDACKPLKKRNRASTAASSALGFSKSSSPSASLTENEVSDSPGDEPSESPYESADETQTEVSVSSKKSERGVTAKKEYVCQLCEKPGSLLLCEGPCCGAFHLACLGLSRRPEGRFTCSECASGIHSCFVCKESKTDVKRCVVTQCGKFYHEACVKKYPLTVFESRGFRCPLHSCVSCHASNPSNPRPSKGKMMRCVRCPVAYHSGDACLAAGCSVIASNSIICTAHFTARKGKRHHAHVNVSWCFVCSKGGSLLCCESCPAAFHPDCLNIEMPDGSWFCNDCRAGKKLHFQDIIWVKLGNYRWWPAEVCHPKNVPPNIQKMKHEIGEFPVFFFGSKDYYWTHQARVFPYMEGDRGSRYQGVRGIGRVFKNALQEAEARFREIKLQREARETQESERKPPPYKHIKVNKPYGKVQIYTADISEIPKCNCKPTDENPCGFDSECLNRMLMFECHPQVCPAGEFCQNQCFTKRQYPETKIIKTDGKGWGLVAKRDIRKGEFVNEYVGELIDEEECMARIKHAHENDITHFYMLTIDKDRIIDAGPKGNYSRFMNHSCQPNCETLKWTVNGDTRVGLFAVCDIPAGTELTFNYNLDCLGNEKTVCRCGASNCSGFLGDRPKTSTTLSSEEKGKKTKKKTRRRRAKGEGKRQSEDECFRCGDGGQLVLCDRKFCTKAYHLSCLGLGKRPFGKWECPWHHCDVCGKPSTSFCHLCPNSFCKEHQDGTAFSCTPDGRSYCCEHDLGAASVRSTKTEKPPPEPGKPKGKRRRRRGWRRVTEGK", "format": "biochemical"}, "[2]": {"experiment": "bead-based luminescence quenchers, dual-tagged ARNT – biochemical, AlphaScreen, cherry-pick, artefact control for ARNT-TACC3 interaction inhibitor project, dose response (AID 651705);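 also: AlphaScreen bead proximity signal that flags compounds interfering with the detection technology; potency reflects signal decrease which marks the compound as an assay artifact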", "format": "functional"}, "Hexokinase HKDC1": {"biological_target": "T1, Hexokinase HKDC1 (Homo sapiens, UniProt Q2TB90)", "T1 sequence (Q2TB90 whole entry)": "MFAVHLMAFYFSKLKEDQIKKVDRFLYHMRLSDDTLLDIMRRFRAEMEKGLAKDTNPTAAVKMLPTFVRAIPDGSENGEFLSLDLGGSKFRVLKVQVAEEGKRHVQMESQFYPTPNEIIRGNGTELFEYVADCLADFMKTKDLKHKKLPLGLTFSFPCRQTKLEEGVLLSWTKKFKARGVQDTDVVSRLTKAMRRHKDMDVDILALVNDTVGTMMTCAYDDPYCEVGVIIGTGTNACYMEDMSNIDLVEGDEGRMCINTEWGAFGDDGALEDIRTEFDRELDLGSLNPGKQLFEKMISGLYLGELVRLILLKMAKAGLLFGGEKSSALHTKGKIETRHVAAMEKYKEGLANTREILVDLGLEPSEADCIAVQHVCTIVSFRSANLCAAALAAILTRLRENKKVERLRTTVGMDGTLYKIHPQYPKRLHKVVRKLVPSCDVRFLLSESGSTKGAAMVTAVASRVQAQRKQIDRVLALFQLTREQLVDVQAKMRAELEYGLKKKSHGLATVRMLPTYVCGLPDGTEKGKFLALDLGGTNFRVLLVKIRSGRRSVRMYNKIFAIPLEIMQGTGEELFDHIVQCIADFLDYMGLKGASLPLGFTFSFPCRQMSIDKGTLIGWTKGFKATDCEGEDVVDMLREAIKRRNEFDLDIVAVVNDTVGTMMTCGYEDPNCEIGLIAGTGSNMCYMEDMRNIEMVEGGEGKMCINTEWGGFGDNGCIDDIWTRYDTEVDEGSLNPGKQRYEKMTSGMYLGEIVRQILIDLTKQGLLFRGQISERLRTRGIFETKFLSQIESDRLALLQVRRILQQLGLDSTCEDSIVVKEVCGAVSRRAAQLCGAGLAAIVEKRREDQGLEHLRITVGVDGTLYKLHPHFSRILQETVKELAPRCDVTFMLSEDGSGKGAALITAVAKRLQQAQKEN", "experiment": "inhibition of HKDC1 glucose phosphorylation – biochemical, W721R variant, dose response (AID 504729)", "format": "functional"}, "[3]": {"biological_target": "Platelet-activating factor acetylhydrolase (Homo sapiens, UniProt Q13093)", "sequence (Q13093 whole entry)": "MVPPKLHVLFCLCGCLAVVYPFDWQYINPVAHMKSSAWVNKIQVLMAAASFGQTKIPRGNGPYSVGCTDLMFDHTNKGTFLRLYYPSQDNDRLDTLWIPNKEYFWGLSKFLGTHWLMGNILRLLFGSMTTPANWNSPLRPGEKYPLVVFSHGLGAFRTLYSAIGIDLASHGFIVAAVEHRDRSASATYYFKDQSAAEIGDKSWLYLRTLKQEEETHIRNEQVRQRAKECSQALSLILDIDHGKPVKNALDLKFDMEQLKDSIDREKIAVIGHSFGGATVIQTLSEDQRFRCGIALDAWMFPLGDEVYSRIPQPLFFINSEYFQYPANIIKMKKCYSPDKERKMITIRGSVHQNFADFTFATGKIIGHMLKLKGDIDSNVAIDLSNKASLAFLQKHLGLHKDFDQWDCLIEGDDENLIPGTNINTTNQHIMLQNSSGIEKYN", "experiment": "Late stage assay provider results from the probe development effort to identify inhibitors of plasma platelet activating factor acetylhydrolase (pPAFAH): fluorescence-based dose response biochemical gel-based competitive Activity-Based Protein Profiling (ABPP) inhibition of human pPAFAH.", "format": "functional, cell-free"}, "[4]": {"biological_target": "Disintegrin and metalloproteinase domain-containing protein 17 (Homo sapiens, UniProt P78536)", "sequence (P78536 whole entry, the tested form may be a part)": "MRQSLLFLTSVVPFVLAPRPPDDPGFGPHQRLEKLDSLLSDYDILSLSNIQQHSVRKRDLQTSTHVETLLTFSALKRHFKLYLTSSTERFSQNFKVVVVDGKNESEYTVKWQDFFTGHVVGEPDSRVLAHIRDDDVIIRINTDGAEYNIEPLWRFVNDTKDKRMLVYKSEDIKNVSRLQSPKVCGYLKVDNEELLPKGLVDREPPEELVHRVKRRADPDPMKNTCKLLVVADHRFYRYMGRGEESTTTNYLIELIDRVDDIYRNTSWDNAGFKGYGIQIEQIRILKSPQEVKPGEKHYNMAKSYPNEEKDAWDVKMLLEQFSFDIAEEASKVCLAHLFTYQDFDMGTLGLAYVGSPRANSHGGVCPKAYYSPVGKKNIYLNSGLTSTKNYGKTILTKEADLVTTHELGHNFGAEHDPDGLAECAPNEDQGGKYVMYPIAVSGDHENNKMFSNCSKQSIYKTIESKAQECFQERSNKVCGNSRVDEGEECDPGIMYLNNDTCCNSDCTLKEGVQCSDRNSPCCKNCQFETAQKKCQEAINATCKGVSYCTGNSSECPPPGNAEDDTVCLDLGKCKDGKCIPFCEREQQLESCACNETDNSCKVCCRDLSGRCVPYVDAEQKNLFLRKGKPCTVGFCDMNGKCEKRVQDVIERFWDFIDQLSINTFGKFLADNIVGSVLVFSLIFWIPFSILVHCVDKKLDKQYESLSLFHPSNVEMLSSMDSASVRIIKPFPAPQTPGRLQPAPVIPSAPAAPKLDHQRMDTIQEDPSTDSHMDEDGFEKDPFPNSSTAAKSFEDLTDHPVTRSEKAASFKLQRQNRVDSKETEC", "experiment": "exosite inhibitors of ADAM17, dose response, biochemical (AID 743260)"}, "[5]": {"biological_target": "Platelet-activating factor acetylhydrolase (Mus musculus, UniProt Q60963)", "sequence (Q60963 whole entry)": "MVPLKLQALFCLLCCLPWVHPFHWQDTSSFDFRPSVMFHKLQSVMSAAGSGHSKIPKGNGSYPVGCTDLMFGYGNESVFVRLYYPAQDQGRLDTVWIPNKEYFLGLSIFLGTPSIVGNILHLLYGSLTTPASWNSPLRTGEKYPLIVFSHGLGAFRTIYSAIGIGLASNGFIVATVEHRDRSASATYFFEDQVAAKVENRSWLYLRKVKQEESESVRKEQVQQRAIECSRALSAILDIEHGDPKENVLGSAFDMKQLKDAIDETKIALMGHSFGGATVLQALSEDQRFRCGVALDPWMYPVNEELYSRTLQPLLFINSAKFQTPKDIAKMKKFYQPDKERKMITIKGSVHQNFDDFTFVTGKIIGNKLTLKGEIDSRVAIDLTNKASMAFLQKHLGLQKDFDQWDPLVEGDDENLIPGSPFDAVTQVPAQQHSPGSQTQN", "experiment": "Late stage assay provider results from the probe development effort to identify inhibitors of pPAFAH: fluorescence-based dose-response biochemical gel-based competitive Activity-Based Protein Profiling (ABPP) assay for SAR compounds.", "format": "functional"}, "[6]": {"experiment": "inhibition of ADAM10 peptide cleavage – biochemical, FRET peptide substrate, recombinant human ADAM10, selectivity assay for ADAM17 exosite inhibitor project, dose response (AID 743259);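 also: ADAM10 enzyme cleaving a FRET peptide substrate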"}, "[7]": {"biological_target": "Mitochondrial peptide methionine sulfoxide reductase (Bos taurus, UniProt P54149)", "sequence (P54149 whole entry)": "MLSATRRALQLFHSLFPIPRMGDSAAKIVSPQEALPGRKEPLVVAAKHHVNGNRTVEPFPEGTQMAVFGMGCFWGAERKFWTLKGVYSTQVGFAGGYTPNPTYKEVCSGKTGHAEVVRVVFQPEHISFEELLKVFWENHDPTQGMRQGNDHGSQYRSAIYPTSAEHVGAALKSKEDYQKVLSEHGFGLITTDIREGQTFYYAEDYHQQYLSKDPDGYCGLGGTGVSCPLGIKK", "experiment": "Absorbance-based biochemical high throughput dose response assay for activators of Methionine sulfoxide reductase A (MsrA).", "format": "functional"}, "Protein RecA": {"biological_target": "T2, Protein RecA (Mycobacterium tuberculosis, UniProt P9WHJ3)", "T2 sequence (P9WHJ3 whole entry)": "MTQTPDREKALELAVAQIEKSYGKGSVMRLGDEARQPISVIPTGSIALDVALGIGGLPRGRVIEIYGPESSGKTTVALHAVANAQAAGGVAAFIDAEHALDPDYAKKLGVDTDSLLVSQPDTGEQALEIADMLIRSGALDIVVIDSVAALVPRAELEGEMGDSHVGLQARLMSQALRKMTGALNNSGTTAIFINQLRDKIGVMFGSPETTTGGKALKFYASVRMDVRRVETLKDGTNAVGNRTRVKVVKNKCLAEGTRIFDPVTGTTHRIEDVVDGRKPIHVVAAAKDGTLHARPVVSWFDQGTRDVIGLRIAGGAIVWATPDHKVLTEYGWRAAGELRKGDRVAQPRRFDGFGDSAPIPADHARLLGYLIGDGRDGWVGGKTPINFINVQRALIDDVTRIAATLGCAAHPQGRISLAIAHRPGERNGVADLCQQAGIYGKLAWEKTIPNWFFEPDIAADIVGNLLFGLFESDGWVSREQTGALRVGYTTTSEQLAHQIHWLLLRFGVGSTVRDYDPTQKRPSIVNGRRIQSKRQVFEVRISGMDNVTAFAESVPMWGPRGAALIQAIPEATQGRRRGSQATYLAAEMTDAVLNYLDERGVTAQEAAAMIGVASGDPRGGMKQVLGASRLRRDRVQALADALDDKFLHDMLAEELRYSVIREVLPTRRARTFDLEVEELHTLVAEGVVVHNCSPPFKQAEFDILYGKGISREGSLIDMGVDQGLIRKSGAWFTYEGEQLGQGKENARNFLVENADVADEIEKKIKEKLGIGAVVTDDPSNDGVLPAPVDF", "experiment": "Fluorescence Cell-Free Homogeneous Dose Retest to Identify Inhibitors of RecA-Intein Splicing Activity. [Related pubchem assays (depositor defined):AID2097, AID2223, AID489010, AID492950]", "format": "functional"}, "[8]": {"biological_target": "T3, Replicative DNA helicase DnaB (Mycobacterium tuberculosis, UniProt P9WMR3)", "T3 sequence (P9WMR3 whole entry)": "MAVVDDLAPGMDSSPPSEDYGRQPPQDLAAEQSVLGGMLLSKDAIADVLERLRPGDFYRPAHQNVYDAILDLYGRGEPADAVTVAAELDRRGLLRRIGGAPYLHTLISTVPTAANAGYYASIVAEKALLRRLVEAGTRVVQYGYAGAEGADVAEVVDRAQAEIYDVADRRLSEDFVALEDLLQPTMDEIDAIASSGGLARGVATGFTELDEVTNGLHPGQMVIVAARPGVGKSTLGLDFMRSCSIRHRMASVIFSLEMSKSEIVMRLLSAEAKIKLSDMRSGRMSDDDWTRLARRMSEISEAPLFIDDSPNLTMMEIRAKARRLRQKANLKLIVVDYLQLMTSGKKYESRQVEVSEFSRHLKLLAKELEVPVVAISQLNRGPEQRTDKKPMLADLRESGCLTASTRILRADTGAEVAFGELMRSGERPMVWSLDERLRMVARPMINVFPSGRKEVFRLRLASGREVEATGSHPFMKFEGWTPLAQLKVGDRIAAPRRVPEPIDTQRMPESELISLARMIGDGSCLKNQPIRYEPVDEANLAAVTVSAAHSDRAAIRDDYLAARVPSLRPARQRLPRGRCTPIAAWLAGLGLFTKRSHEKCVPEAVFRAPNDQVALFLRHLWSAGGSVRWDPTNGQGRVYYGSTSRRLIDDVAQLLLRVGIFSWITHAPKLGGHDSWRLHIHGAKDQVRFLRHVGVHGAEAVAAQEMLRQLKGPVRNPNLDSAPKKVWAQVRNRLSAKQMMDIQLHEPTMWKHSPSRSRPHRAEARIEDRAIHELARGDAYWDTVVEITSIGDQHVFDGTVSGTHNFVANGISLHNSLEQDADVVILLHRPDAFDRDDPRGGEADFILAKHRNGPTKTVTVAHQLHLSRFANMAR", "experiment": "DnaB intein splicing inhibitors, dose response, biochemical, cell-free fluorescence (AID 449749)", "format": "functional"}, "[9]": {"experiment": "loss of viability in HepG2 cells – cell-based, CellTiter-Glo, cherry-picked, cytotoxicity control for Shn3 inhibitor project, dose response (AID 624134)", "format": "functional"}, "Interleukin-8 [10]": {"biological_target": "T4, Interleukin-8 (Homo sapiens, UniProt P10145)", "T4 sequence (P10145 whole entry)": "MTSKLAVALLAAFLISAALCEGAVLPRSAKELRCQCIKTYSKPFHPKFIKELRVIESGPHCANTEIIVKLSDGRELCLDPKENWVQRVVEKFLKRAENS", "experiment": "Dose Response confirmation of uHTS small molecule hits for cystic fibrosis induced NFkb Inhibitors in a TNFa-induced IL8 counterscreen.", "format": "functional", "details": "read-out: IC50_Mean"}, "[11]": {"experiment": "HEK-293T cell viability reduction – luminescence, B-cell screen hits, cytotoxicity control for BCR NF-kB inhibitor project, dose response (AID 489021);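 also: cells exposed to compound for about 14 hours before viability readout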", "format": "functional, cell-based"}, "Interleukin-8 [12]": {"biological_target": "T4, Interleukin-8", "experiment": "Dose Response confirmation of uHTS small molecule hits for cystic fibrosis induced NFkb Inhibitors in a PAF-induced IL8 counterscreen.", "format": "functional", "details": "read-out: IC50_Mean"}, "[13]": {"experiment": "non-specific 3'UTR reporter inhibition in Clone20-Shn3RL – cell-based, Renilla luciferase, cherry-picked, counter-screen for Shn3 inhibitor project, dose response (AID 624133)", "format": "functional"}, "[14]": {"experiment": "reduction of Shn3 3'UTR-driven luciferase in osteoblasts – cell-based, Clone20 osteoblasts, firefly luciferase, cherry-picked, dose response (AID 624132)", "format": "functional"}, "[15]": {"biological_target": "T5, Microphthalmia-associated transcription factor (Homo sapiens, UniProt O75030)", "T5 sequence (O75030 whole entry)": "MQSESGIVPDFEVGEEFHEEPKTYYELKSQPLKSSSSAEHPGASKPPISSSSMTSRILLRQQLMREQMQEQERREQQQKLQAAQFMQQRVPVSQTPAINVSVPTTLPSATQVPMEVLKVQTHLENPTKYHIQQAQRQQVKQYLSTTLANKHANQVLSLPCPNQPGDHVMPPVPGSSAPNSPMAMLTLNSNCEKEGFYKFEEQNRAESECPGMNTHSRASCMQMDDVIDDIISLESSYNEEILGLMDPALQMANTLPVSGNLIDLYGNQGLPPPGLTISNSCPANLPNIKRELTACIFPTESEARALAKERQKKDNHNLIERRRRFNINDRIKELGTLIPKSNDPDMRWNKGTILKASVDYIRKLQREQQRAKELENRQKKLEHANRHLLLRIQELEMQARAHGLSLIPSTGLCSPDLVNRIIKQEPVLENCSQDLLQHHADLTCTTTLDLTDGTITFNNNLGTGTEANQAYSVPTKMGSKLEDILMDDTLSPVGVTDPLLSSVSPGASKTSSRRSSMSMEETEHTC", "experiment": "reducers of TRPM1 reporter luminescence, concentration series – cell-based, SK-MEL-5, cherry-picked, set 3, MITF inhibitor project, dose response (AID 493073)", "format": "functional"}},
  "note": "Calls of active or inactive are those of the source.",
  "data": [
    {"molecule": "NC1=CC(=O)C(=O)c2ccccc21", "note": "[4-AMINO-[1,2]NAPHTHOQUINONE]", "values": [
      {"measurement": "AC50", "setting": "[1]", "value": "1.74 µM (active)"},
      {"measurement": "AC50", "setting": "[2]", "value": "107 µM (active)"},
      {"measurement": "IC50", "setting": "Hexokinase HKDC1", "value": "34 µM (inactive)"}
    ]},
    {"molecule": "Cc1cc(N2CCN(C(=O)Oc3ccc(-c4ccccc4)cn3)CC2)c2ccccc2n1", "values": [
      {"measurement": "IC50", "setting": "[3]", "value": "0.006 µM (active)"},
      {"measurement": "IC50", "setting": "[4]", "value": "> 69.4 µM (inactive)"},
      {"measurement": "IC50", "setting": "[5]", "value": "0.031 µM (active)"},
      {"measurement": "IC50", "setting": "[6]", "value": "> 69.4 µM (inactive)"}
    ]},
    {"molecule": "O=C1c2ccccc2C(=O)c2cc(S(=O)(=O)Nc3ccccc3)ccc21", "values": [
      {"measurement": "EC50", "setting": "[7]", "value": "> 104 µM (inactive)"},
      {"measurement": "EC50", "setting": "Protein RecA", "value": "12.1 µM (active)"},
      {"measurement": "AC50", "setting": "[8]", "value": "29.8 µM (active)"}
    ]},
    {"molecule": "CC(C)(C)C(=O)/C(=C/c1ccncc1)n1cncn1", "values": [
      {"measurement": "AC50", "setting": "[9]", "value": "16.8 µM (active)"},
      {"measurement": "IC50", "setting": "Interleukin-8 [10]", "value": "1.25 µM (active)"},
      {"measurement": "IC50", "setting": "[11]", "value": "> 80 µM (inactive)"},
      {"measurement": "IC50", "setting": "Interleukin-8 [12]", "value": "0.607 µM (active)"},
      {"measurement": "AC50", "setting": "[13]", "value": "7.23 µM (active)"},
      {"measurement": "AC50", "setting": "[14]", "value": "3.27 µM (active)"},
      {"measurement": "AC50", "setting": "[15]", "value": "6.63 µM (active)"}
    ]}
  ]
}
